Marks after values point to notes of the source that are not given here.
Tests used:
[1] = test system: patients with high- or intermediate-risk primary myelofibrosis (PMF) and post-PV or post-essential thrombocythemia (ET) myelofibrosis; assay: Phase I/II clinical trial of CYT387: spleen response; format: in vivo, human
Description: By “spleen response” is meant a reduction in the size of the patient's spleen as assessed by either palpation of a previously palpable spleen during physical exam or by diagnostic imaging. The IWG consensus criteria specifies that there be either a minimum 50% reduction in palpable splenomegaly (spleen enlargement) of a spleen that is at least 10 cm at baseline (prior to treatment) or of a spleen that is palpable at more than 5 cm at baseline becomes not palpable. However, smaller reductions are also considered to be within the term “spleen response”.
(§1) A clinical trial was designed to assess the safety, tolerability, and pharmacokinetic behavior of CYT387 in a Phase I dose-escalation study in patients with high- or intermediate-risk primary myelofibrosis (PMF) and post-PV or post-essential thrombocythemia (ET) myelofibrosis. The secondary objective was evaluation of CYT387 's benefit to myelofibrosis patients. CYT387 was administered orally (in a capsule without excipients) once daily in 28-day cycles. For patients achieving less than a complete remission after 3 cycles of treatment, escalation was permitted to the highest tolerated dose in the absence of disease progression or unacceptable toxicity. Once dose-limiting toxicity (DLT) was identified, a dose-confirmation cohort initiated treatment at the maximum tolerated dose (MTD) and/or a lower clinically effective dose.
(§2) Results were obtained for 36 subjects enrolled in the 120 patient Phase I/II trial for which recruitment is ongoing. Of these, 18 patients were from the dose escalation phase, and 18 patients were from the subsequent dose confirmation phase. Twenty subjects (56%) were red cell transfusion-dependent at study entry. Prior treatment included other JAK inhibitors in ten patients (nine and one subjects with INCB018424 and TG101348, respectively) and pomalidomide in nine patients. The median treatment duration at publication was 15 weeks (range 4-38).
Spleen Size Reduction: Twenty nine (97%) of the 30 evaluable subjects who had splenomegaly at baseline (median 20 cm; range 10-32 cm) had some degree of spleen size reduction (median 9 cm; range 2-18 cm). Eleven (37%) patients have achieved a minimum 50% decrease in palpable spleen size, thus qualifying them for a CI per IWG-MRT criteria, including three out of eight subjects (38%) who were previously treated with INCB018424.

[2] = test system: patients with high- or intermediate-risk primary myelofibrosis (PMF) and post-PV or post-essential thrombocythemia (ET) myelofibrosis; assay: Phase I/II clinical trial of CYT387: constitutional symptoms; format: in vivo, human; conditions: at last follow up
Protocol: as §1, §2
Constitutional symptoms: The proportion of patients with the following symptoms at baseline was as follows: fatigue (97%), pruritus (22%), night sweats (38%), cough (13%), bone pain (28%), and fever (16%). At last follow up, improvement (complete resolution; CR) in these symptoms was reported by 68% (16% CR), 86% (57% CR), 83% (75% CR), 75% (50% CR), 78% (44% CR), and 100% (100% CR), respectively.

[3] = test system: patients with high- or intermediate-risk primary myelofibrosis (PMF) and post-PV or post-essential thrombocythemia (ET) myelofibrosis; assay: Phase I/II clinical trial of CYT387: anemia response / hemoglobin; format: in vivo, human
Description: By “anemia response” is meant an increase in the patient's hemoglobin level or a patient who was transfusion dependent becoming transfusion independent. Desirably, a minimum increase in hemoglobin of 2.0 g/dL lasting a minimum of 8 weeks is achieved, which is the level of improvement specified in the International Working Group (IWG) consensus criteria. However, smaller, but still medically significant, increases in hemoglobin are also considered to be within the term “anemia response”.
as §1, with “CYT387 was administered orally (in a capsule without excipients) once daily in 28-day cycles.” left out
as §2
Anemia Response: The total anemia response rate was 63%. Of 22 subjects who were evaluable for anemia response (baseline Hgb<10 g/dL or red cell transfusion-dependent), nine subjects (41%) had achieved “Clinical Improvement (CI)” as per the International Working Group for Myeloproliferative Neoplasms Research and Treatment (IWG-MRT) criteria, including two of four subjects who were previously treated with INCB018424. An additional five subjects experienced a >50% reduction in transfusion requirement.
There is also a line for “anemia evaluable” patients which are patients who are considered anemic at baseline by IWG criteria. That is they have a baseline hgb of <10 g/dL or are transfusion dependent at baseline.

[4] = test system: patients with high- or intermediate-risk primary myelofibrosis (PMF) and post-PV or post-essential thrombocythemia (ET) myelofibrosis; assay: Phase I/II clinical trial of CYT387: toxicity; format: in vivo
Protocol: as §1, §2
To date, 36 subjects were evaluable for toxicity. At the highest dose level (400 mg/day), two of six subjects experienced dose limiting toxicity (DLT) (one each with asymptomatic grade three hyperlipasemia and grade three headache that were reversible upon holding drug); consequently, the maximum tolerated dose (MTD) was declared at 300 mg/day. In the dose-confirmation phase, subjects were started at one of two dose levels that were deemed clinically effective: 150 mg/day (n=15) and 300 mg/day (n=3). Thirty-five subjects were on active therapy at publication of the abstract: 100 mg/day (n=2), 150 mg/day (n=20), 300 mg/day (n=10), and 400 mg/day (n=3).

[5] = administered once a day; cited from earlier work
[6] = 30 evaluable subjects with splenomegaly at baseline
[7] = Previous Treatment with IMids (Pomalidomide, Thalidomide, Revlimid)
[8] = Previous Treatment with INCB018424
[9] = Previous Treatment with TG-101348
[10] = Previous Treatment with Unspecified JAK2
[11] = Previous Treatment with any JAK2
[12] = interim response by diagnosis: PET
[13] = interim response by diagnosis: PMF
[14] = interim response by diagnosis: PPV

In the case of `N#CCNC(=O)c1ccc(-c2ccnc(Nc3ccc(N4CCOCC4)cc3)n2)cc1` [CYT387, N-(cyanomethyl)-4-[2-[[4-(4-morpholinyl)phenyl]amino]-4-pyrimidinyl]-benzamide], the “subjects with some degree of spleen size reduction” value ([1]; 29 of 30 evaluable subjects with splenomegaly at baseline (median 20 cm)) is reported as 97%, the “spleen size reduction, median” value [1, 6] is reported as 9 cm and the “spleen size reduction, range” value [1, 6] is reported as 2-18 cm. For the same compound, the “Responders, Spleen” value [1, 7] was “Spleen: 6/11 = 54.5%”, the “Responders, Spleen” value [1, 8] was “Spleen: 3/10 = 30%” and the “Responders, Spleen” value [1, 9] was “Spleen: 1/4 = 25%”. For the same compound, the “Responders, Spleen” value [1, 10] was “Spleen: 1/3 = 33.3%”, the “Responders, Spleen” value [1, 11] was “Spleen: 5/17 = 29.4%” and the “patients with minimum 50% decrease in palpable spleen size (CI per IWG-MRT)” value ([1]; eleven of 30 evaluable) was 37%. For the same compound, the “Spleen Response/Evaluable” value [1, 12] was 7/19 (36.8%), the “Spleen Response/Evaluable” value [1, 13] was 22/82 (26.8%) and the “Spleen Response/Evaluable” value [1, 14] was 11/33 (33.3%). The “patients with minimum 50% decrease in palpable spleen size (CI per IWG-MRT), previously treated with INCB018424” value ([1]; three out of eight subjects previously treated with INCB018424) was 38%, the “complete resolution (CR) of bone pain” value [2] was 44% and the “complete resolution (CR) of cough” value [2] was 50%. The “complete resolution (CR) of fatigue” value [2] was 16%, the “complete resolution (CR) of fever” value [2] was 100% and the “complete resolution (CR) of night sweats” value [2] was 75%. The “complete resolution (CR) of pruritus” value [2] was 57%, the “improvement in bone pain” value [2] was 78% and the improvement in cough [2] was 75%. The improvement in fever [2] was 100%, the “improvement in night sweats” value [2] was 83% and the improvement in pruritus [2] was 86%. The improvement in fatigue ([2]; patients with symptom at baseline) was 68%, the “effect on hemoglobin in transfusion dependent patients who respond (Tx responders)” value ([3]; FIG. 2, no longer receiving RBC transfusions) was “modest initial increase in hemoglobin that is sustained” and the “Anemia response: % responders” value ([3]; Initial Dose 150 BID) was 33%*. The “Anemia response: Responders (number)” value ([3]; Initial Dose 150 BID, 21 evaluable pts) was 7, the “Anemia response: % responders” value ([3]; Initial Dose 150 QD) was 50% and the “Anemia response: Responders (number)” value ([3]; Initial Dose 150 QD, 32 evaluable pts) was 16. For the same compound, the “Anemia response: % responders” value ([3]; Initial Dose 300 QD) was 54%, the “Anemia response: Responders (number)” value ([3]; Initial Dose 300 QD, 39 evaluable pts) was 21 and the “Responders, Anemia” value [3, 7] was “Anemia: 9/14 = 64.3%”. The “Responders, Anemia” value [3, 8] was “Anemia: 4/7 = 57.1%”, the “Responders, Anemia” value [3, 9] was “Anemia: 3/4 = 75%” and the “Responders, Anemia” value [3, 10] was “Anemia: 2/3 = 66.7%”. The “Responders, Anemia” value [3, 11] was “Anemia: 9/14 = 64.3%”, the “effect on hemoglobin levels” value ([3]; first 60 patients, FIG. 1 and 2) was “clear and sustained improvement in hemoglobin levels” and the “Anemia Response/Evaluable” value [3, 12] was 10/18 (55.6%). For the same compound, the “Anemia Response/Evaluable” value [3, 13] was 30/66 (45.5%), the “Anemia Response/Evaluable” value [3, 14] was 6/14 (42.9%) and the “subjects achieving Clinical Improvement (CI) in anemia per IWG-MRT criteria” value ([3]; nine of 22 evaluable subjects (baseline Hgb<10 g/dL or red cell transfusion-dependent)) was 41%. The “additional subjects with >50% reduction in transfusion requirement” value ([3]; of 22 evaluable subjects) was “five”, the “total anemia response rate” value ([3]; oral once daily, 28-day cycles, 22 subjects evaluable for anemia response) was 63% and the “subjects achieving anemia CI per IWG-MRT among those previously treated with INCB018424” value ([3]; previously treated with INCB018424) was “two of four”. The “Grade 3/4 thrombocytopenia” value ([4]; human, in vivo) was 22%, the “Treatment-emergent grade 3/4 neutropenia” value ([4]; human, in vivo) was “not observed” and the “grade 4 non-hematological toxicities” value ([4]; human, in vivo) was “No grade 4 non-hematological toxicities were observed”. For the same compound, the “subjects experiencing dose limiting toxicity (DLT)” value ([4]; human, in vivo) was “two of six”, the “subjects with first-dose effect (grade 1 lightheadedness and hypotension)” value ([4]; human, in vivo) was 36% and the “time to resolution of first-dose effect” value ([4]; human, in vivo) was 3 to 4 h. The tolerability ([4]; human, in vivo) was “well tolerated”, the “treatment-emergent grade 3 anemia” value ([4]; human, in vivo) was 3% and the “maximum tolerated dose (MTD)” value ([4]; oral once daily) was 300 mg/day.
In the case of `Cc1cnc(Nc2ccc(OCCN3CCCC3)cc2)nc1Nc1cccc(S(=O)(=O)NC(C)(C)C)c1` [TG101348], the “maximum tolerated dose (MTD)” value [5] is listed as 680 mg/day.
